Measured values as given in patent publication US20260174677A1, “METHODS OF TREATING INSULIN RESISTANCE AND ASSOCIATED DISORDERS” (The University of Melboune, priority 2022, published 2026).

Columns and labels:
Assay type in all cases: in vivo, mouse
[1] = tested on: insulin-induced p-AKT in the ARC; assay: Intranasal PZ6005 in obese mice: insulin-induced p-AKT immunohistochemistry in the ARC; details: both doses I.N. (1 or 5 mg/animal/day), 14 days, after I.P. insulin
Experimental: (§1) Conscious mice were restrained by scruffing and inverted parallel to the floor with the chin at ˜180-degree angle with the neck. Using a 10 μL tip, a pipettor was loaded with 5 μl of vehicle (ddH2O) or fluorosamine (1 mg/animal in 20 μl or 5 mg/animal in 20 μl). The tip of the filled pipettor was placed near the left nostril at a 45-degree angle, and the drug was ejected to form a small 5 μl droplet at tip for the mouse to inhale. Immediately after the mouse inhaled the first droplet the remaining solution was ejected to form another small droplet for the mouse to inhale through the same nostril. The mouse was held in this position for 15 seconds before the procedure was repeated in the right nostril. The mouse was returned to the cage for 2 minutes and the process was repeated so that each mouse received four droplets of 5 μl each, delivering a total of 20 μl of solution. All drugs were administered delivered approximately 1 h before lights off […].

[2] = Intranasal PZ6005 in obese mice: I.P. GTT, ITT and fasting glucose
Experimental: (§2) Metabolic measurements were undertaken in the Melbourne Mouse Metabolic Phenotyping Platform (The University of Melbourne, Australia). Glucose tolerance tests were performed on 6 h fasted conscious mice respectively by injecting D-glucose (2 mg/g of lean body mass and 1 mg/g lean mass for db/db and HFHS+STZ mice) into the peritoneal cavity and measuring glucose in tail blood immediately before and at 15, 30, 45, 60, 90 and 120 min after injection using an Accu-Check glucometer (Roche, Germany). The areas under glucose excursion curves were determined and expressed as mmol/1×min. Fasted (12 h fast) plasma insulin or glucose levels were determined using a Rat/Mouse Insulin ELISA (EZRMI-13K, Merck Millipore, CA) or an Accu-Check glucometer respectively. The HOMA-IR was calculated using the equation [(glucose×insulin)/405]. Adiposity was measured using TD-NMR minispec (Bruker Optics Inc., Billerica, MA).
as §1
Obese mice intranasally receiving either vehicle or PZ6005 (1 or 5 mg/animal/day) were subjected to I.P. GTT after 6 hrs fasting period and I.P. insulin tolerance test (ITT) after 4 hrs fasting period.

[3] = tested on: insulin induced p-AKT signalling in the ARC; assay: I.C.V. fluorosamine in obese mice: insulin-induced p-AKT in the ARC; details: following 10 days of treatment
Experimental: (§3) Under isoflurane anaesthetic 12-week HFHS fed C57BL/6J or AgRP-Cas9 mice were implanted stereotaxically with guide cannulas into the right lateral ventricle (0.2 mm posterior, 1.0 mm lateral from bregma). Guide cannula was positioned 1.3 mm above the injection site (1 mm ventral to the surface of the skull). AgRP-Cas9 mice were treated with either AAV-gScrambled or AAV-gIR and underwent guide cannula placement 7 days post AAV administration. Mice were administered I.C.V. vehicle (ddH2O), fluorosamine (100 μg/animal/day or 250 μgl/animal/day) in a volume of 2 μl/animal and all compounds were delivered approximately 1 h before lights off […].

[4] = I.C.V. fluorosamine in obese mice: metabolic assessment; details: I.C.V. daily for 10 days
Experimental: as §2
Mice were acclimated for 24 h and then monitored for 48 h in an environmentally controlled Promethion Metabolic Screening System (Sable Systems International, NV) fitted with indirect open circuit calorimetry, food consumption and activity monitors to measure activity, caloric intake and energy expenditure. Respiratory quotients were calculated as the ratio of CO2 production over O2 consumption respiratory exchange ratio and energy expenditure was calculated using the Weir equation (Kcal h-1=60×(0.003941×VO2+0.001106×VCO2). To account for difference in body mass/composition energy expenditure was analysed and adjusted using ANCOVA using scripts available at the National Mouse Metabolic Phenotyping Centers (MMPC, Nashville, TN, USA) Energy Expenditure Analysis Page (https://www.mmpc.org/shared/regression.aspx).
as §3

[5] = Intranasal PZ6005 in diet-induced obese mice: body weight, tissue mass and fat mass
Experimental: as §2, §1
Changes in body weight of 12-week-HFHS-diet-fed obese mice during 14 days of intranasal administration of either vehicle or PZ6005 (1 or 5 mg/animal/day). Intranasal PZ6005 treatment induce weight loss in a dose-dependent manner, as assessed by significant differences in weight changes across groups. […] At the end of the experiment, mice in the highest dose of PZ6005 treatment had lost […] and those in the 1 mg treatment had lost […], whereas control littermates maintained at 3.57±1.28% of body weight (FIG. 10a).
To determine the influence of intranasal PZ6005-mediated attenuated neurofibrosis on tissue-specific adiposity and body composition, peripheral tissues and fat mass of the mice were weighed following the 14-day administration. […] Moreover, the reduction in overall fat mass depended upon the doses of PZ6005.

[6] = I.C.V. fluorosamine: hyperinsulinemic-euglycemic clamps in weight matched obese mice; details: I.C.V. daily for 3 days
Experimental: For hyperinsulinemic-euglycemic clamps, mice were anesthetised under isoflurane and the right jugular vein was catheterised for infusions, as described previously by Dodd et al., 2018. Catheters were attached to an implant button (BMSW25, RWD Life Sciences, Shenzhen, China). Implant buttons were capped allowing for group mousing of mice and catheters were kept patent by flushing daily with 40 μL saline containing 200 units/mL heparin. On the day of the experiment, food was removed at 7:00 A.M. After 3.5 h fasting, a primed (1 min, 1.25 uCi/min) continuous infusion (0.05 uCi/min) of [3-3H]glucose (NET331A001MC, PerkinElmer, MA) was administered to measure whole-body glucose turnover, as described previously by Dodd et al., 2018. 90 minutes later, mice received a 40 mU/Kg insulin bolus over 10 mins which was followed by continuous insulin infusion (4 mU/kg/min in gelofusine). Euglycemia (˜8-10 mM blood glucose) was maintained by a variable infusion of a 30% glucose solution.
Tail blood samples were collected during steady-state conditions (Ra=Rd) and at 80, 90, 100, 110, and 120 min for determination of Rd and Ra, as described above. At 120 mins, a 13 uCi bolus of [^14C]-2-deoxy-D-glucose (NEC495A250UC, PerkinElmer, MA) was injected into the jugular vein, and blood was sampled at 122, 125, 135, 145, and 155 min. […]

[7] = I.N. 1 mg/animal/day, 14 days, obese mice
[8] = I.N. highest dose (5 mg/animal/day), 14 days, obese mice

CC(=O)NC1C(OC(C)=O)OC(COC(C)=O)[C@@H](F)C1OC(C)=O (stereo partly shown) [fluorosamine, per-O-acetylated-4-F-N-acetylglucosamine]
ARC pAKT +ve. cells (insulin receptor signalling) [1]: robust increase
glucose clearance rate vs 1 mg treatment group and controls ([2]; I.N. 5 mg, after 60 mins of I.P. glucose in GTT and after 0 mins of I.P. insulin): significantly higher glucose clearance rate
insulin sensitivity (ITT) ([2]; I.N. 1 or 5 mg/animal/day, obese mice): enhanced insulin sensitivity
glucose tolerance (glucose excursion in GTT and ITT) ([2]; I.N. 1 or 5 mg/animal/day, obese mice, vs control littermates): better glucose tolerance than control littermates
fasting (12 hrs) glucose level ([2]; both doses of intranasal treatment (1 or 5 mg/animal/day)): Reduction
insulin induced p-AKT signalling in the ARC [3]: enhanced insulin induced p-AKT signalling in the ARC
adiposity [4]: reduced adiposity
body weight [4]: promoted weight loss
energy expenditure [4]: enhanced energy expenditure independently of ambulatory activity
food intake [4]: supressed food intake through enhanced satiety
glucose tolerance [4]: improved glucose tolerance
body weight lost at the end of the experiment [5, 7]: 16.32±1.41%
mass of epiWAT, BAT and liver [5, 7]: decreased
post-treatment fat mass decrease compared to pre-treatment mass [5, 7]: 12.59±2.29%
day from which weight was robustly decreased ([5]; I.N. 1 mg/animal/day, obese mice): 7 days
day on which 5 mg treatment began to significantly reduce more weight than 1 mg treatment ([5]; I.N. 5 mg vs 1 mg/animal/day, persisted to day 14): 9 days
post-treatment fat mass decrease compared to pre-treatment mass ([5]; I.N. 5 mg/animal/day, 14 days, obese mice): 23.21±9.27%
day from which weight was robustly decreased ([5]; I.N. 5 mg/animal/day, obese mice): 3 days
body weight lost at the end of the experiment [5, 8]: 6.36±0.88%
tissue mass (adipose tissues and liver) [5, 8]: remarkedly reduced tissue mass
whole-body metabolic improvements ([5]; intranasal, 14 days, diet-induced obese mice, compared with I.C.V. delivery): recapitulated the whole-body metabolic improvements observed with intracerebroventricular delivery
whole-body insulin sensitivity (GIR) in clamp [6]: enhancement of whole-body insulin sensitivity
